Results as given in US8703224B2, “Method to improve water solubility of Rebaudioside D” (PepsiCo, Inc., priority 2009, dated 2014).
Each block holds one compound with its values, some of them ahead of it.

How the values were obtained:
[1] = Differential Scanning calorimetry (DSC); conditions: 40°-300° C., heating at 10° C./min
[2] = Water solubility experiment, anhydrous versus non-anhydrous form, solubility versus temperature; type: physicochemical; conditions: after cooling to room temperature and sitting on a bench-top overnight
[3] = Thermal Gravimetric Analysis (TGA); type: physicochemical; conditions: 2 mg sample, 10° C./min
Procedure: In a complementary experiment, commercially available Reb D was examined by Thermal Gravimetric Analysis (TGA). TGA is a type of test that may be performed to determine changes in weight as a function of temperature. The method may be used to determine loss of water, or any other volatiles in a compound as it is heated. A derivative weight loss curve can be used to determine at what temperature weight loss is most apparent. A 2 mg sample was placed into a sample boat on a microgram balance (accurate to +/−1 μg) and heated while monitoring the mass. The temperature was increased at 10° C./min while continuing to monitor the mass and graphing the result as a percentage of the original mass. The results from this analysis are shown in FIG. 2 and indicate mass loss beginning at about 50° C. and continuing to about 104° C. and then remaining stable until reaching approximately 260° C., whereupon a large loss of mass was recorded, which corresponds to the decomposition temperature.

[4] = Oven heating for two hours, mass loss and HPLC check for decomposition; type: physicochemical; conditions: for Net Loss (weight %) / Net Loss: oven, two hours; for Net Loss: 50 g sample
Procedure: An experiment was performed on four samples (50 g each) of commercially available Reb D. The samples were each heated in an oven for two hours at one of four temperatures: 70°, 80°, 90° and 100° C. The samples were then immediately cooled and weighed to determine any loss in mass. Each sample, including the initial sample, was analyzed using gradient reversed-phase High Performance Liquid Chromatography (HPLC) with Evaporative Light Scattering Detection (ELSD) and Ultra-Violet (UV) detection methods to determine if any significant decomposition occurred.

[5] = Dissolution in water with heating, then cooling to room temperature (stable solution test); type: physicochemical
[6] = cited from earlier work
[7] = HPLC (ELSD/UV) analysis after heating at 100° C. for 120 hours; type: physicochemical; conditions: after heating 120 hours at 100° C.
Procedure: It was discovered that upon heating commercially available Reb D, believed to be a non-anhydrous form of Reb D (i.e., hydrate), compound in an oven to a temperature of 100° C. for 120 hours, a thermally stable anhydrous Reb D product was obtained. […] The top graph indicates ELSD detection, and the bottom graph indicates UV detection results taken at a wavelength of 210 nm.
Additional HPLC chromatogram analysis was performed using both an anhydrous sample of Reb D (i.e., after the sample had undergone the process of heating for 120 hours at 100° C.) and a sample that had undergone heating for 24 hours. […] A decomposition peak estimated to be in the range of 2% of the total mass was found in the analysis results from the anhydrous Reb D sample, but its structure was not determined.

temperature of apparent decomposition (large endothermic event) [1]: about 260 °C
appearance of water solution ([2]; listed as Reb D hydrate): full of precipitate
decomposition temperature (large loss of mass) [3]: approximately 260 °C
decomposition by HPLC ([4]; after two hours at 70°, 80°, 90° and 100° C.): little to no decomposition
Net Loss (weight %) ([4]; 70° C.): 0.38 weight %
Net Loss ([4]; 70° C.): 0.19 g
Net Loss (weight %) ([4]; 80° C.): 0.48 weight %
Net Loss ([4]; 80° C.): 0.24 g
Net Loss (weight %) ([4]; 90° C.): 0.76 weight %
Net Loss ([4]; 90° C.): 0.38 g
Net Loss (weight %) ([4]; 100° C.): 1.36 weight %
Net Loss ([4]; 100° C.): 0.68 g
stable solubility in aqueous solution (room temperature): no more than 450 ppm
Compound: C=C1C[C@@]23CC[C@H]4[C@@](C)(CCC[C@@]4(C)C(=O)O[C@@H]4O[C@H](CO)[C@@H](O)[C@H](O)[C@H]4O[C@@H]4O[C@H](CO)[C@@H](O)[C@H](O)[C@H]4O)[C@@H]2CC[C@]1(O[C@@H]1O[C@H](CO)[C@@H](O)[C@H](O[C@@H]2O[C@H](CO)[C@@H](O)[C@H](O)[C@H]2O)[C@H]1O[C@@H]1O[C@H](CO)[C@@H](O)[C@H](O)[C@H]1O)C3 [Reb D, Rebaudioside D]
behaviour of heated solution upon cooling (cooled to room temperature (e.g., 25° C.)): precipitates back out of solution within a few hours
precipitation after cooling ([5]; dissolved in water with heating and allowed to cool): precipitating out of solution within a number of hours

Compound: C=C1C[C@@]23CC[C@H]4[C@@](C)(CCC[C@@]4(C)C(=O)O[C@@H]4O[C@H](CO)[C@@H](O)[C@H](O)[C@H]4O)[C@@H]2CC[C@]1(O[C@@H]1O[C@H](CO)[C@@H](O)[C@H](O[C@@H]2O[C@H](CO)[C@@H](O)[C@H](O)[C@H]2O)[C@H]1O[C@@H]1O[C@H](CO)[C@@H](O)[C@H](O)[C@H]1O)C3 [Reb A, Rebaudioside A]
solubility in aqueous solution ([6]; room temperature): at least 3000 ppm

Compound: C=C1C[C@@]23CC[C@H]4[C@@](C)(CCC[C@@]4(C)C(=O)O[C@@H]4O[C@H](CO)[C@@H](O)[C@H](O)[C@H]4O)[C@@H]2CC[C@]1(O[C@@H]1O[C@H](CO)[C@@H](O)[C@H](O)[C@H]1O[C@@H]1O[C@H](CO)[C@@H](O)[C@H](O)[C@H]1O)C3 [Stevioside]
solubility in water ([6]; in words): only sparingly soluble in water

decomposition by HPLC retention values [7]: no significant level of decomposition
impurity at the 14.1 minute elution mark ([7]; FIG. 6): about 5 % of the total mass
decomposition peak ([7]; FIG. 7): ~2 % of the total mass
appearance of water solution [2]: stayed as a clear solution
time at room temperature with no precipitating out of solution ([5]; 3000 ppm solution after cooling): at least 24 hours
solution concentration ([5]; dissolved in water with heating, cooled to room temperature): 3000 ppm
Compound: C=C1C[C@@]23CC[C@H]4[C@@](C)(CCC[C@@]4(C)C(=O)O[C@@H]4O[C@H](CO)[C@@H](O)[C@H](O)[C@H]4O[C@@H]4O[C@H](CO)[C@@H](O)[C@H](O)[C@H]4O)[C@@H]2CC[C@]1(O[C@@H]1O[C@H](CO)[C@@H](O)[C@H](O[C@@H]2O[C@H](CO)[C@@H](O)[C@H](O)[C@H]2O)[C@H]1O[C@@H]1O[C@H](CO)[C@@H](O)[C@H](O)[C@H]1O)C3 [anhydrous Reb D, Rebaudioside D]
